Results published in patent US12399427B2, “Photobase generator, compound, photoreactive composition and reaction product” (Tokyo University of Science Foundation, priority 2019, dated 2025).

Tests used:
[1] = Behavior of compound in methanol under light irradiation with wavelength of 313 nm or 365 nm (absorbance; Test Examples 1, 2, 8, 9); format: physicochemical; conditions: 2.0×10^−5 mol/L; for molar absorption coefficient ε313: 313 nm; for molar absorption coefficient ε365: 365 nm
Procedure: (§1) The compound (1)-1 obtained above was dissolved in methanol so as to have a concentration of 2.0×10^−5 mol/L. Then, using a mercury xenon lamp, the illuminance was set to 5 mW/cm^2, the exposure doses were set to 0, 10, 30, 60 and 100 mJ/cm^2, and the obtained methanol solution was irradiated with light having a wavelength of 313 nm. Then, the absorbance of the compound (1)-1 was measured.
as §1, with “using an LED” for “using a mercury xenon”, “to 10” for “to 5”, “of 365” for “of 313”
as §1, with “compound (1)-2” for “compound (1)-1”, “to 10” for “to 5”, “0,” for “0, 10,”, “30, 100, 200” for “30, 60”, “and 300” for “and 100”
The compound (1)-2 obtained above was dissolved in methanol so as to have a concentration of 2.0×10^−5 mol/L. Then, using an LED lamp, the illuminance was set to 10 mW/cm^2, the exposure doses were set to 0, 30, 100, 200 and 300 mJ/cm^2, and the obtained methanol solution was irradiated with light having a wavelength of 365 nm. Then, the absorbance of the compound (1)-2 was measured.

[2] = Solubility of the compound in solvents (amount of solvent required to dissolve 10 mg); format: physicochemical
Procedure: Moreover, the solubility of the compound (1)-1 in the solvent was confirmed. Specifically, the amount of the solvent required to dissolve 10 mg of the compound (1)-1 was confirmed for each solvent. The amount of the solvent required was from 1 mL to 5 mL when tetrahydrofuran or acetone was used, and 1 mL or less when cyclopentanone, methanol or dimethyl sulfoxide was used.

[3] = Production of reaction product using photoreactive composition including compound (2) (Test Example 12); conditions: 365 nm, up to 10000 mJ/cm^2, post-bake 160° C. 20 minutes
Procedure: Polyglycidylmethyl acrylate (PGMA, 0.1 g, molecular weight; 22000) showing the structure above, the compound (2) (0.005 g) and tetrahydrofuran (1 g) were blended and stirred at 25° C. for 1 minute to obtain a photoreactive composition.
The photoreactive compositions obtained above was applied onto a silicon wafer by a spin coating method under the conditions of 1500 rpm and 30 seconds. Next, after heating (pre-baking) this coating film (photoreactive composition layer) at 100° C. for 1 minutes, using a Hg—Xe lamp, the coating film was irradiated with light having a wavelength of 365 nm with an illuminance of 50 mW/cm^2 and the exposure doses of 0 mJ/cm^2 to 10000 mJ/cm^2. After light irradiation, the coating film was heated (post-baked) 160° C. for 20 minutes. The coating film after heated was developed with tetrahydrofuran for 30 seconds, and then the ratio of the thickness of the coating film after development to the coating film before light irradiation was measured.

| molar absorption coefficient ε313 [1] [L/mol/cm] | molar absorption coefficient ε365 [1] [L/mol/cm] | amount of the solvent required to dissolve 10 mg ([2]; cyclopentanone) [mL] | amount of the solvent required to dissolve 10 mg ([2]; dimethyl sulfoxide) [mL] | amount of the solvent required to dissolve 10 mg ([2]; methanol) [mL] | production of an insolubilized reaction product [3] | SMILES |
| --- | --- | --- | --- | --- | --- | --- |
| 13000 | 3200 |  |  |  |  | CN(C(=O)/C=C/c1ccccc1O)c1ccncc1 [compound (1)-2] |
| 23000 | 6900 | ≤ 1 | ≤ 1 | ≤ 1 |  | O=C(/C=C/c1ccccc1O)Nc1ccncc1 [compound (1)-1] |
|  |  |  |  |  | could not be produced | O=C(/C=C/c1ccccc1O)NC1CCCCC1 [compound (2)] |
